Reference: the NIST ThermoML archive (doi:10.1021/je400733m)

Conditions: for vapor or sublimation pressure: Liquid; for mass density: Gas, isochoric method

F [hydrogen fluoride]
Conditions | vapor or sublimation pressure [kPa]
293.12 K | 102.1
303.13 K | 145.3
313.16 K | 202.1
323.08 K | 274.7
333.13 K | 368.7
343.1 K | 487.1
353.14 K | 636.4
363.17 K | 822.2
373.14 K | 1048.5
383.21 K | 1327.1
393.11 K | 1659.3
403.1 K | 2060.2
413.14 K | 2541.3
423.14 K | 3111.5
433.06 K | 3778.1
443.01 K | 4566
454.15 K | 5611.6

Conditions | mass density [kg/m3]
293.15 K, 27.7 kPa | 0.232
293.15 K, 29 kPa | 0.245
293.15 K, 31.8 kPa | 0.282
293.15 K, 34.5 kPa | 0.32
293.15 K, 37.2 kPa | 0.36
293.15 K, 41.5 kPa | 0.438
293.15 K, 55.5 kPa | 0.802
293.15 K, 69.3 kPa | 1.311
293.15 K, 83.3 kPa | 1.954
293.15 K, 98.6 kPa | 2.86
303.15 K, 26.4 kPa | 0.212
303.15 K, 29.4 kPa | 0.239
303.15 K, 34.2 kPa | 0.283
303.15 K, 38 kPa | 0.32
303.15 K, 41.5 kPa | 0.356
303.15 K, 45.1 kPa | 0.395
303.15 K, 52.7 kPa | 0.491
303.15 K, 64.8 kPa | 0.694
303.15 K, 78 kPa | 0.999
303.15 K, 90 kPa | 1.359
303.15 K, 102.6 kPa | 1.818
303.15 K, 114.8 kPa | 2.327
303.15 K, 126.7 kPa | 2.883
303.15 K, 141.6 kPa | 3.802
313.15 K, 29.3 kPa | 0.227
313.15 K, 35.9 kPa | 0.28
313.15 K, 36.4 kPa | 0.28
313.15 K, 39.6 kPa | 0.307
313.15 K, 41.4 kPa | 0.326
313.15 K, 42.5 kPa | 0.331
313.15 K, 48.3 kPa | 0.385
313.15 K, 53.3 kPa | 0.426
313.15 K, 55.1 kPa | 0.447
313.15 K, 57 kPa | 0.461
313.15 K, 62.1 kPa | 0.51
313.15 K, 68.9 kPa | 0.59
313.15 K, 74 kPa | 0.644
313.15 K, 82.8 kPa | 0.767
313.15 K, 90.7 kPa | 0.883
313.15 K, 96.6 kPa | 0.992
313.15 K, 109.1 kPa | 1.246
313.15 K, 110.3 kPa | 1.285
313.15 K, 124.3 kPa | 1.653
313.15 K, 129.3 kPa | 1.787
313.15 K, 138 kPa | 2.078
313.15 K, 148 kPa | 2.417
313.15 K, 152 kPa | 2.579
313.15 K, 165.7 kPa | 3.118
313.15 K, 165.8 kPa | 3.133
313.15 K, 180.3 kPa | 3.777
313.15 K, 180.5 kPa | 3.797
323.15 K, 55 kPa | 0.422
323.15 K, 100.9 kPa | 0.842
323.15 K, 117.9 kPa | 1.05
323.15 K, 156.9 kPa | 1.731
323.15 K, 181.4 kPa | 2.343
323.15 K, 204.5 kPa | 3.061
323.15 K, 228.7 kPa | 3.949
333.15 K, 29.2 kPa | 0.218
333.15 K, 99.9 kPa | 0.759
333.15 K, 112.6 kPa | 0.863
333.15 K, 142.2 kPa | 1.147
333.15 K, 163.7 kPa | 1.386
333.15 K, 180 kPa | 1.61
333.15 K, 199.2 kPa | 1.904
333.15 K, 222.8 kPa | 2.36
333.15 K, 234.8 kPa | 2.612
333.15 K, 246.2 kPa | 2.902
333.15 K, 270.8 kPa | 3.552
333.15 K, 276.4 kPa | 3.753
333.15 K, 305.8 kPa | 4.693
333.15 K, 317.3 kPa | 5.162
333.15 K, 341.5 kPa | 6.088
333.15 K, 343.5 kPa | 6.229
343.15 K, 24.6 kPa | 0.179
343.15 K, 67.3 kPa | 0.488
343.15 K, 141.7 kPa | 1.05
343.15 K, 244.7 kPa | 2.094
343.15 K, 289.6 kPa | 2.791
343.15 K, 340.6 kPa | 3.856
343.15 K, 375.4 kPa | 4.777
343.15 K, 414.8 kPa | 6.034
343.15 K, 455.3 kPa | 7.553
353.15 K, 50.5 kPa | 0.352
353.15 K, 118.5 kPa | 0.833
353.15 K, 189 kPa | 1.359
353.15 K, 279.3 kPa | 2.154
353.15 K, 334.2 kPa | 2.782
353.15 K, 391.1 kPa | 3.617
353.15 K, 450.1 kPa | 4.75
353.15 K, 509 kPa | 6.216
353.15 K, 583.5 kPa | 8.604
363.15 K, 78.7 kPa | 0.523
363.15 K, 151.2 kPa | 1.024
363.15 K, 268.6 kPa | 1.886
363.15 K, 349.7 kPa | 2.574
363.15 K, 435.2 kPa | 3.463
363.15 K, 519.5 kPa | 4.617
363.15 K, 610.3 kPa | 6.318
363.15 K, 704.7 kPa | 8.73
363.15 K, 792.4 kPa | 11.696
373.15 K, 59.5 kPa | 0.389
373.15 K, 135.1 kPa | 0.89
373.15 K, 249.7 kPa | 1.674
373.15 K, 360.6 kPa | 2.495
373.15 K, 444.9 kPa | 3.191
373.15 K, 555.7 kPa | 4.277
373.15 K, 661.8 kPa | 5.611
373.15 K, 768.8 kPa | 7.405
373.15 K, 872.6 kPa | 9.733
373.15 K, 971.7 kPa | 12.608
383.15 K, 109.3 kPa | 0.69
383.15 K, 256.8 kPa | 1.656
383.15 K, 388.4 kPa | 2.569
383.15 K, 518.3 kPa | 3.557
383.15 K, 666.4 kPa | 4.865
383.15 K, 794.6 kPa | 6.263
383.15 K, 928.9 kPa | 8.187
383.15 K, 1067 kPa | 10.825
383.15 K, 1201 kPa | 14.245
393.15 K, 172.3 kPa | 1.108
393.15 K, 337.7 kPa | 2.178
393.15 K, 505.5 kPa | 3.335
393.15 K, 674.9 kPa | 4.611
393.15 K, 840.7 kPa | 6.052
393.15 K, 1013 kPa | 7.764
393.15 K, 1175 kPa | 10.132
393.15 K, 1344 kPa | 13.239
393.15 K, 1498 kPa | 17.048
403.15 K, 240.6 kPa | 1.492
403.15 K, 449.3 kPa | 2.829
403.15 K, 652.2 kPa | 4.216
403.15 K, 862.3 kPa | 5.791
403.15 K, 1069 kPa | 7.588
403.15 K, 1278 kPa | 9.802
403.15 K, 1491 kPa | 12.74
403.15 K, 1709 kPa | 16.83
403.15 K, 1897 kPa | 21.668
413.15 K, 222.3 kPa | 1.32
413.15 K, 371.4 kPa | 2.232
413.15 K, 508.9 kPa | 3.095
413.15 K, 683.2 kPa | 4.229
413.15 K, 883.6 kPa | 5.621
413.15 K, 1059 kPa | 6.93
413.15 K, 1234 kPa | 8.38
413.15 K, 1399 kPa | 9.914
413.15 K, 1557 kPa | 11.607
413.15 K, 1728 kPa | 13.746
413.15 K, 2034 kPa | 18.831
413.15 K, 2223 kPa | 23.108
433.15 K, 309.8 kPa | 1.785
433.15 K, 698.6 kPa | 4.1
433.15 K, 1068.9 kPa | 6.452
433.15 K, 1452 kPa | 9.113
433.15 K, 1847 kPa | 12.286
433.15 K, 2258 kPa | 16.303
433.15 K, 2635 kPa | 21.034
433.15 K, 3001 kPa | 27.275
433.15 K, 3365 kPa | 36.362
433.15 K, 3703 kPa | 50.976
453.15 K, 476.5 kPa | 2.703
453.15 K, 1014 kPa | 5.793
453.15 K, 1550 kPa | 9.121
453.15 K, 2081 kPa | 12.797
453.15 K, 2621 kPa | 17.077
453.15 K, 3133 kPa | 21.99
453.15 K, 3651 kPa | 28.309
453.15 K, 4173 kPa | 36.974
453.15 K, 4738 kPa | 51.158
453.15 K, 5189 kPa | 73.046
473.15 K, 398.6 kPa | 2.061
473.15 K, 719.1 kPa | 3.785
473.15 K, 1113 kPa | 5.969
473.15 K, 1557 kPa | 8.541
473.15 K, 1986 kPa | 11.159
473.15 K, 2275 kPa | 13.033
473.15 K, 2590 kPa | 15.167
473.15 K, 2992 kPa | 18.107
473.15 K, 3473 kPa | 22.184
473.15 K, 4349 kPa | 30.552
473.15 K, 4995 kPa | 38.609
473.15 K, 5640 kPa | 49.429
473.15 K, 6393 kPa | 68.899
473.15 K, 7041 kPa | 98.187
